Data reported in patent publication US20060287320A1, “Preparation of thioarabinofuranosyl compounds and use thereof” (Southern Research Institute, priority 1998, published 2006).

Legend:
CEM cells [1] = test: Retention of araCTP and T-araCTP in CEM cells (FIG. 2); assay type: cell-based
Procedure: […]. Samples were collected at various times after the cells were resuspended in fresh medium, and the amount of radioactivity in the 5′-triphosphate peak was determined using SAX HPLC. In this experiment there was 0.639 pmoles araCTP/10^6 cells and 0.246 pmoles of T-araCTP after the 1 hour incubation with radiolabeled compound.

CEM cells [2] = test: Initial half-life of triphosphates in CEM cells; assay type: cell-based; conditions: CEM cells after 1 hour with 100 nM radiolabeled nucleoside, then fresh medium; 5′-triphosphate peak
Procedure: Samples were collected at various times after the cells were resuspended in fresh medium, and the amount of radioactivity in the 5'-triphosphate peak was determined using SAX HPLC. The data presented are the mean and standard deviation from 3 separate experiments.

SC CAKI-1 Renal Tumor = test: Response of SC CAKI-1 Renal Tumor to Treatment; assay type: in vivo
Procedure: (§1) The following in vivo tests were carried out to illustrate the effectiveness of the compounds of the present invention.

SC HCT-116 Colon Tumor = test: Response of SC HCT-116 Colon Tumor to Treatment; assay type: in vivo; conditions: Q 1D × 9 day 6
Procedure: as §1

SC Colon 36 Tumor = test: Response of SC Colon 36 Tumor to Treatment; assay type: in vivo; conditions: 18 Mg/Kg IP, Q 1D × 9 day 9
Procedure: as §1

PC-3 Prostate = test: In vitro IC50, 72 hour exposure, Natural Red assay; assay type: cell-based; conditions: read-out: IC50 Molar Values
Procedure: (§2) EXAMPLE 3 The following in vitro tests were carried out.
(§3) The above tests were carried out with a 72 hour exposure to the compound using Natural Red assay for all cell lines except SK-MEL 28 which was done with SRB assay.

CAK1-1 Renal = test: In vitro IC50, 72 hour exposure, Natural Red assay; assay type: cell-based; conditions: read-out: IC50 Molar Values
Procedure: as §2, §3

LOX IMV1 Melanoma = test: In vitro IC50, 72 hour exposure, Natural Red assay; assay type: cell-based; conditions: read-out: IC50 Molar Values
Procedure: as §2, §3

ZR-75-1 Mammary = test: In vitro IC50, 72 hour exposure, Natural Red assay; assay type: cell-based; conditions: Homo sapiens, read-out: IC50 Molar Values
Procedure: as §2, §3

NC1-H23 Lung = test: In vitro IC50, 72 hour exposure, Natural Red assay; assay type: cell-based; conditions: read-out: IC50 Molar Values
Procedure: as §2, §3

DLD-1 Colon = test: In vitro IC50, 72 hour exposure, Natural Red assay; assay type: cell-based; conditions: Homo sapiens, read-out: IC50 Molar Values
Procedure: as §2, §3

**Q.** Which results are given for `Nc1ccn(C2SC(COP(=O)(O)OP(=O)(O)OP(=O)(O)O)C(O)C2O)c(=O)n1` (stereo not shown) [T-araCTP]?
**A.** T-araCTP after the 1 hour incubation (CEM cells [1]): 0.246 pmol; Initial Half-Life, Hours (SD) (CEM cells [2]): 10.8 ± 1.80 h

**Q.** Which results are given for `CCCCCCCCCCCCCCCC(=O)Nc1ccn([C@@H]2O[C@H](CO)[C@@H](O)[C@@H]2O)c(=O)n1` [Palmo-ARA-C]?
**A.** Days Delay (T − C) (SC CAKI-1 Renal Tumor; 22.5 Mg/Kg IP, 0 1D × 9 day 7): 26.5 days; Days to 3 Doubling (SC CAKI-1 Renal Tumor; 22.5 Mg/Kg IP, 0 1D × 9 day 7): 36.0 days; Non-Specific Deaths/Total (SC CAKI-1 Renal Tumor; 22.5 Mg/Kg IP, 0 1D × 9 day 7): 1/6; Tumor Free Surv/Total (SC CAKI-1 Renal Tumor; 22.5 Mg/Kg IP, 0 1D × 9 day 7): 0/6; Tumor Regression Duration Med (SC CAKI-1 Renal Tumor; 22.5 Mg/Kg IP, 0 1D × 9 day 7): 9.1 days; Tumor Regression Duration Range (Days) (SC CAKI-1 Renal Tumor; 22.5 Mg/Kg IP, 0 1D × 9 day 7): 9-9 Days; Tumor Regression Number of Complete (SC CAKI-1 Renal Tumor; 22.5 Mg/Kg IP, 0 1D × 9 day 7): 1; Tumor Regression Number of Partial (SC CAKI-1 Renal Tumor; 22.5 Mg/Kg IP, 0 1D × 9 day 7): 0; Days Delay (T − C) (SC CAKI-1 Renal Tumor; 45 Mg/Kg IP, Q 1D × 5 day 7): 31.7 days; Days to 3 Doubling (SC CAKI-1 Renal Tumor; 45 Mg/Kg IP, Q 1D × 5 day 7): 41.2 days; Non-Specific Deaths/Total (SC CAKI-1 Renal Tumor; 45 Mg/Kg IP, Q 1D × 5 day 7): 4/6; Toxicity remark under Days Delay (T − C) (SC CAKI-1 Renal Tumor; 45 Mg/Kg IP, Q 1D × 5 day 7): (Toxic); Tumor Free Surv/Total (SC CAKI-1 Renal Tumor; 45 Mg/Kg IP, Q 1D × 5 day 7): 0/6; Tumor Regression Number of Complete (SC CAKI-1 Renal Tumor; 45 Mg/Kg IP, Q 1D × 5 day 7): 0; Tumor Regression Number of Partial (SC CAKI-1 Renal Tumor; 45 Mg/Kg IP, Q 1D × 5 day 7): 0; Days Delay (T − C) (SC HCT-116 Colon Tumor; 15 Mg/Kg IP): 6.0 days; Days to 2 Doubling (SC HCT-116 Colon Tumor; 15 Mg/Kg IP): 14.9 days; Non-Specific Deaths/Total (SC HCT-116 Colon Tumor; 15 Mg/Kg IP): 0/6; Tumor Free Surv/Total (SC HCT-116 Colon Tumor; 15 Mg/Kg IP): 0/6; Tumor Regression Number of Complete (SC HCT-116 Colon Tumor; 15 Mg/Kg IP): 0; Tumor Regression Number of Partial (SC HCT-116 Colon Tumor; 15 Mg/Kg IP): 0; Days Delay (T − C) (SC HCT-116 Colon Tumor; 22.5 Mg/Kg IP): 15.1 days; Days to 2 Doubling (SC HCT-116 Colon Tumor; 22.5 Mg/Kg IP): 24.0 days; Non-Specific Deaths/Total (SC HCT-116 Colon Tumor; 22.5 Mg/Kg IP): 0/6; Tumor Free Surv/Total (SC HCT-116 Colon Tumor; 22.5 Mg/Kg IP): 0/6; Tumor Regression Duration Med (SC HCT-116 Colon Tumor; 22.5 Mg/Kg IP): 24.2 days; Tumor Regression Duration Range (Days) (SC HCT-116 Colon Tumor; 22.5 Mg/Kg IP): 24-24 Days; Tumor Regression Number of Complete (SC HCT-116 Colon Tumor; 22.5 Mg/Kg IP): 1; Tumor Regression Number of Partial (SC HCT-116 Colon Tumor; 22.5 Mg/Kg IP): 0; Days Delay (T − C) (SC Colon 36 Tumor): >38.5 days; Days to 2 Doubling (SC Colon 36 Tumor): >49.0 days; Non-Specific Deaths/Total (SC Colon 36 Tumor): 0/5; Tumor Free Surv/Total (SC Colon 36 Tumor): 4/5; Tumor Regression Duration Med (SC Colon 36 Tumor): 34.6 days; Tumor Regression Duration Range (Days) (SC Colon 36 Tumor): 35-35 Days; Tumor Regression Number of Complete (SC Colon 36 Tumor): 5; Tumor Regression Number of Partial (SC Colon 36 Tumor): 0

**Q.** For `Nc1ccn([C@H]2C[C@H](O)[C@@H](COP(=O)(O)OP(=O)(O)OP(=O)(O)O)O2)c(=O)n1` [dCTP], which “Initial Half-Life, Hours (SD)” value (CEM cells [2]) is on record?
**A.** 0.94 ± 0.16 h

**Q.** With `Nc1nc(=O)n([C@@H]2S[C@H](CO)[C@@H](O)[C@@H]2O)cc1F` [5-fluorothioaraC, 1-(4-Thio-β-D-arabinofuranosyl)5-fluorocytosine] as the compound, how does the IC50 (PC-3 Prostate) read?
**A.** 100 µM

**Q.** And the IC50 (CAK1-1 Renal)?
**A.** 20 µM

**Q.** And the IC50 (LOX IMV1 Melanoma)?
**A.** 6 µM

**Q.** What about the IC50 (ZR-75-1 Mammary) of the same compound?
**A.** 0.6 µM

**Q.** And the IC50 (NC1-H23 Lung)?
**A.** 3 µM

**Q.** And the IC50 (DLD-1 Colon)?
**A.** 80 µM
